Holding throughout (type): biochemical
One experiment concerns the target T1, human Lck enzyme (Homo sapiens, UniProt P06239).
T1 construct: purchased Carna Biosciences, Inc. 08-170
The experiment is described as follows: Lck enzyme inhibitory activity (time-resolved fluorometry, biotinylated peptide phosphorylation). Particulars: read-out: LCK_IC50. The method in brief:
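Readout pairs a europium cryptate-labelled anti-phosphotyrosine antibody with XL665-streptavidin, measured by time-resolved fluorescence. IC50 derived from percent inhibition against untreated controls.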

The next experiment addresses T2, human Src enzyme (Homo sapiens, UniProt P12931).
T2 construct: purchased Carna Biosciences, Inc. 08-173
The experiment is described as follows: Src enzyme inhibitory activity (time-resolved fluorometry, biotinylated peptide phosphorylation). Conditions: read-out: SRC_IC50. The method, boiled down: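 Compounds were tested for blocking tyrosine phosphorylation of a biotinylated peptide substrate by recombinant human Src. Phosphorylated product was quantified by time-resolved fluorometry using europium cryptate and XL665 conjugates, and IC50 was calculated against the compound-free control.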

The next experiment addresses T3, human Yes1 enzyme (Homo sapiens, UniProt P07947).
T3 construct: made in house
The experiment can be described thus: Yes1 enzyme inhibitory activity (time-resolved fluorometry, biotinylated peptide phosphorylation). Conditions: read-out: YES_IC50. The method in brief: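 Inhibition was expressed against a compound-free control to give IC50, using TR-FRET read-out (Eu-cryptate anti-pTyr antibody, streptavidin-XL665).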

The mark [1] stands for this setting: biotinylated peptide phosphorylation.

The structures appear in SMILES notation. Where two headings read alike, the source gives them in different places.

T3 sequence (P07947 whole entry): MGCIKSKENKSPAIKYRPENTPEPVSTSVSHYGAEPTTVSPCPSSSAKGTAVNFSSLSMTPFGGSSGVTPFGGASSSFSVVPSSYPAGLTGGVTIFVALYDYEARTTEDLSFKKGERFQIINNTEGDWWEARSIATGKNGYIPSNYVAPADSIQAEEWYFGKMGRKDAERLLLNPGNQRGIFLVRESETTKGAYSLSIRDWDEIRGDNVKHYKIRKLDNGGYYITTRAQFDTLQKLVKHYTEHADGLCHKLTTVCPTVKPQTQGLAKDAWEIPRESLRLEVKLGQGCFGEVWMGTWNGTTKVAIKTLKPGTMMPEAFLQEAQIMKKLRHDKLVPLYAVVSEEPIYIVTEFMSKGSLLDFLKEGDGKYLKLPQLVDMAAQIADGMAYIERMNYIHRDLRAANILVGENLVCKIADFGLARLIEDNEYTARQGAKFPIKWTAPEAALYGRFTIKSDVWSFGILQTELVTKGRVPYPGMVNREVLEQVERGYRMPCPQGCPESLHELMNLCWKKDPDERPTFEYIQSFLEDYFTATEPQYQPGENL
T1 sequence (P06239 whole entry): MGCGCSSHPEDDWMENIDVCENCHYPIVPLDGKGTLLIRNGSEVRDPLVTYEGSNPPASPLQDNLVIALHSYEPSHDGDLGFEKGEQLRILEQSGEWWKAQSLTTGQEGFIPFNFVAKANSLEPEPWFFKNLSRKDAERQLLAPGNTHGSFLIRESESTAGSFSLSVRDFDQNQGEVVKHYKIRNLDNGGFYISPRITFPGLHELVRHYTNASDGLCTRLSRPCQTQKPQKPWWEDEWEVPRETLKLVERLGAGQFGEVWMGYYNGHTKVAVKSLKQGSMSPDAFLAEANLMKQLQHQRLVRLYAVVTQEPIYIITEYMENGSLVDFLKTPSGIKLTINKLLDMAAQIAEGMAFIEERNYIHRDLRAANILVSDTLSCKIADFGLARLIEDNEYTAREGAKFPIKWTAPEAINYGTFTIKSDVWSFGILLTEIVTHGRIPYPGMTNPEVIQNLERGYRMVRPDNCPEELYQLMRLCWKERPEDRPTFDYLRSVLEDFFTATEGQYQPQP
T2 sequence (P12931 whole entry): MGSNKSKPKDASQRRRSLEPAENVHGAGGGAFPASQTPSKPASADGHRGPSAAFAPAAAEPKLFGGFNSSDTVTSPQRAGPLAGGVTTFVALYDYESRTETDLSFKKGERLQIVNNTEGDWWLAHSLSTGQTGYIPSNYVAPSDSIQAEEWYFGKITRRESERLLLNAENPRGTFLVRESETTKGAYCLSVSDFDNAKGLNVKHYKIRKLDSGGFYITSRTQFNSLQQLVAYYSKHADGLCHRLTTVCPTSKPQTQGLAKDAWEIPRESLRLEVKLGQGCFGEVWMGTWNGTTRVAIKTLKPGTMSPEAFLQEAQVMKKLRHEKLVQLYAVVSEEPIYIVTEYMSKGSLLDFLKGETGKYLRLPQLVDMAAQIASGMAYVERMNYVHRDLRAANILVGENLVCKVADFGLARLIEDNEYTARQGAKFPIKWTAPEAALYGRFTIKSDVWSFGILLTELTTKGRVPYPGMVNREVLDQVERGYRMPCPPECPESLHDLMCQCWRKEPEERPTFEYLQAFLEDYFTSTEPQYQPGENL

With `COc1cccc(S(=O)(=O)Nc2cc3[nH]c(C(=O)c4cnn(-c5cnc(Oc6ccccc6F)cc5C)c4N)cc3cc2C)n1` [Example 5-1-483, N-[2-[5-amino-1-[6-(2-fluorophenoxy)-4-methylpyridin-3-yl]pyrazole-4-carbonyl]-5-methyl-1H-indol-6-yl]-6-methoxypyridine-2-sulfonamide], the IC50 on human Lck enzyme (setting [1]) turned out to be 250 nM; at human Src enzyme (setting [1]), 710 nM; on human Yes1 enzyme (setting [1]) it was 6.7 nM.

Consider `Cc1cc(Oc2c(F)cccc2F)ncc1-n1ncc(C(=O)c2cc3cc(OC4CCN(C5CS(=O)(=O)C5)CC4)c(-c4ccccc4C(F)(F)F)cc3[nH]2)c1N` [Example 5-1-388, [5-amino-1-[6-(2,6-difluorophenoxy)-4-methylpyridin-3-yl]pyrazol-4-yl]-[5-[1-(1,1-dioxothietan-3-yl)piperidin-4-yl]oxy-6-[2-(trifluoromethyl)phenyl]-1H-indol-2-yl] methanone], for which the IC50 at human Lck enzyme is 47 nM; on human Src enzyme it was 220 nM; at human Yes1 enzyme, 4.2 nM.

In the case of `Cc1cc2cc(C(=O)c3cnn(-c4cnc(Oc5ccccc5F)cc4C)c3N)[nH]c2cc1NS(=O)(=O)c1cncc(F)c1` [Example 5-1-494, N-[2-[5-amino-1-[6-(2-fluorophenoxy)-4-methylpyridin-3-yl]pyrazole-4-carbonyl]-5-methyl-1H-indol-6-yl]-5-fluoropyridine-3-sulfonamide], the IC50 on human Lck enzyme (setting [1]) was determined as 230 nM; on human Src enzyme (setting [1]), 430 nM; at human Yes1 enzyme (setting [1]) it was 3 nM.

As to `Cc1cnc(F)c(S(=O)(=O)Nc2cc3[nH]c(C(=O)c4cnn(-c5cnc(Oc6c(F)cccc6F)cc5C)c4N)cc3cc2F)c1` [Example 5-1-523, N-[2-[5-amino-1-[6-(2,6-difluorophenoxy)-4-methylpyridin-3-yl]pyrazole-4-carbonyl]-5-fluoro-1H-indol-6-yl]-2-fluoro-5-methylpyridine-3-sulfonamide], the IC50 at human Lck enzyme (setting [1]) turned out to be 200 nM; at human Src enzyme (setting [1]), 450 nM; on human Yes1 enzyme (setting [1]), 6.3 nM.

Turning to `Cc1cc(-n2ncc(C(=O)c3cc4cc(C)c(N5C(=O)NC6(CCOCC6)C5=O)cc4[nH]3)c2N)ccc1Oc1ccccc1F` [Example 5-1-469, 3-[2-[5-amino-1-[4-(2-fluorophenoxy)-3-methylphenyl]pyrazole-4-carbonyl]-5-methyl-1H-indol-6-yl]-8-oxa-1,3-diazaspiro[4.5] decane-2,4-dione], the figures for the IC50 on human Lck enzyme (setting [1]), on human Src enzyme (setting [1]) and at human Yes1 enzyme (setting [1]) were 100 nM, 2700 nM and 9 nM, respectively.

Consider `Cc1cc2cc(C(=O)c3cnn(-c4ccc(Oc5ccccc5F)cc4C)c3N)[nH]c2cc1NS(=O)(=O)c1cncc(F)c1` [Example 5-1-545, N-[2-[5-amino-1-[4-(2-fluorophenoxy)-2-methylphenyl]pyrazole-4-carbonyl]-5-methyl-1H-indol-6-yl]-5-fluoropyridine-3-sulfonamide], for which the figures for the IC50 on human Lck enzyme (setting [1]), at human Src enzyme (setting [1]) and at human Yes1 enzyme (setting [1]) were 22 nM, 150 nM and 3.1 nM, respectively.

In the case of `Cc1cc(Oc2ccccc2F)ncc1-n1ncc(C(=O)c2cc3cc(F)c(N4CCCS4(=O)=O)cc3[nH]2)c1N` [Example 4-9-001, {5-amino-1-[6-(2-fluorophenoxy)-4-methylpyridin-3-yl]pyrazol-4-yl}-[6-(1,1-dioxo-1,2-thiazolidin-2-yl)-5-fluoro-1H-indol-2-yl]methanone], the IC50 at human Lck enzyme (setting [1]) is 2.5 nM; at human Src enzyme (setting [1]) it was 13 nM; at human Yes1 enzyme (setting [1]) it was 0.46 nM.

`Cc1cc(Oc2c(F)cccc2F)ncc1-n1ncc(C(=O)c2cc3cc(F)c(N4C(=O)NC5(COC5)C4=O)cc3[nH]2)c1N` [Example 5-1-345, 7-[2-[5-amino-1-[6-(2,6-difluorophenoxy)-4-methylpyridin-3-yl]pyrazole-4-carbonyl]-5-fluoro-1H-indol-6-yl]-2-oxa-5,7-diazaspiro[3.4] octane-6,8-dione]: the results for the IC50 at human Lck enzyme, on human Src enzyme and at human Yes1 enzyme were 3.2 nM, 47 nM and 1.6 nM, respectively.

With `Cc1cc(-n2ncc(C(=O)c3cc4cc(OC5CCN(C6CCC6)CC5)c(NS(C)(=O)=O)cc4[nH]3)c2N)ccc1Oc1ccccc1F` [Example 5-1-231, N-[2-[5-amino-1-[4-(2-fluorophenoxy)-3-methylphenyl]pyrazole-4-carbonyl]-5-(1-cyclobutylpiperidin-4-yl)oxy-1H-indol-6-yl] methanesulfonamide], the IC50 at human Lck enzyme was found to be 72 nM; on human Src enzyme, 610 nM; on human Yes1 enzyme, 1.7 nM.

Take `Cc1cc2[nH]c(C(=O)c3cnn(-c4ccc(Oc5cccc(F)c5F)cc4C)c3N)cc2cc1NS(C)(=O)=O` [Example 4-2-050, N-[2-[5-amino-1-[4-(2,3-difluorophenoxy)-2-methylphenyl]pyrazole-4-carbonyl]-6-methyl-1H-indol-5-yl]methanesulfonamide]: the IC50 at human Lck enzyme (setting [1]) stood at 1.7 nM; on human Src enzyme (setting [1]) it was 7 nM; at human Yes1 enzyme (setting [1]) it was 0.2 nM.

Turning to `Cc1cc2cc(C(=O)c3cnn(-c4cnc(Oc5c(F)cccc5F)cc4C)c3N)[nH]c2cc1NS(=O)(=O)N1CCOCC1` [Example 4-2-109, N-[2-[5-amino-1-[6-(2,6-difluorophenoxy)-4-methylpyridin-3-yl]pyrazole-4-carbonyl]-5-methyl-1H-indol-6-yl]morpholine-4-sulfonamide], the figures for the IC50 on human Lck enzyme (setting [1]), on human Src enzyme (setting [1]) and at human Yes1 enzyme (setting [1]) were 45 nM, 210 nM and 1.9 nM, respectively.

Take `Cc1cc(Oc2c(F)cccc2F)ncc1-n1ncc(C(=O)c2cc3cc(OCC(F)F)c(C4CCN(C(=O)CN)CC4)cc3[nH]2)c1N` [Example 4-18-001, 2-amino-1-{4-{2-{5-amino-1-[6-(2,6-difluorophenoxy)-4-methylpyridin-3-yl]pyrazole-4-carbonyl}-5-(2,2-difluoroethoxy)-1H-indol-6-yl}piperidin-1-yl}ethanone]: the IC50 on human Lck enzyme (setting [1]) came out at 8.2 nM; on human Src enzyme (setting [1]) it was 24 nM; at human Yes1 enzyme (setting [1]), 3.2 nM.

Consider `Cc1cc(Oc2ccccc2F)ccc1-n1ncc(C(=O)c2cc3cc(OCC(F)F)c(N4CCOCC4)cc3[nH]2)c1N` [Example 4-1-015, [5-amino-1-[4-(2-fluorophenoxy)-2-methylphenyl]pyrazol-4-yl]-[5-(2,2-difluoroethoxy)-6-morpholin-4-yl-1H-indol-2-yl]methanone], for which the IC50 at human Lck enzyme (setting [1]) turned out to be 10 nM; at human Src enzyme (setting [1]), 14 nM; at human Yes1 enzyme (setting [1]), 1 nM.

On to `Cc1cc(Oc2c(F)cccc2F)ncc1-n1ncc(C(=O)c2cc3cc(OCC(F)F)c(-c4cccs4)cc3[nH]2)c1N` [Example 5-1-257, [5-amino-1-[6-(2,6-difluorophenoxy)-4-methylpyridin-3-yl]pyrazol-4-yl]-[5-(2,2-difluoroethoxy)-6-thiophen-2-yl-1H-indol-2-yl] methanone], for which the IC50 was found to be 95 nM on human Lck enzyme, 250 nM at human Src enzyme and 40 nM at human Yes1 enzyme.

Turning to `Cc1cc(Oc2ccccc2F)ccc1-n1ncc(C(=O)c2cc3cc(OC4CCN(C(C)C)CC4)c(Br)cc3[nH]2)c1N` [Example 5-1-146, [5-amino-1-[4-(2-fluorophenoxy)-2-methylphenyl]pyrazol-4-yl]-[6-bromo-5-(1-propan-2-ylpiperidin-4-yl)oxy-1H-indol-2-yl] methanone], the IC50 was 5.3 nM on human Lck enzyme, 2.2 nM on human Src enzyme and 0.27 nM at human Yes1 enzyme.

As to `Cc1cc(Oc2ccccc2F)ncc1-n1ncc(C(=O)c2cc3cc(OC(F)F)c(NS(=O)(=O)C4CCOCC4)cc3[nH]2)c1N` [Example 5-1-401, N-[2-[5-amino-1-[6-(2-fluorophenoxy)-4-methylpyridin-3-yl]pyrazole-4-carbonyl]-5-(difluoromethoxy)-1H-indol-6-yl]oxane-4-sulfonamide], the IC50 on human Lck enzyme (setting [1]) stood at 41 nM; on human Src enzyme (setting [1]), 140 nM; at human Yes1 enzyme (setting [1]) it was 2.5 nM.

Turning to `Cc1cc2cc(C(=O)c3cnn(-c4cnc(Oc5ccc(F)cc5)cc4C)c3N)[nH]c2cc1NS(C)(=O)=O` [Example 4-2-067, N-[2-[5-amino-1-[6-(4-fluorophenoxy)-4-methylpyridin-3-yl]pyrazole-4-carbonyl]-5-methyl-1H-indol-6-yl]methanesulfonamide], the IC50 was 59 nM on human Lck enzyme (setting [1]), 97 nM at human Src enzyme (setting [1]) and 6.3 nM at human Yes1 enzyme (setting [1]).

With `Cc1cc2cc(C(=O)c3cnn(-c4ccc(Oc5cc(F)ccc5F)cc4C)c3N)[nH]c2cc1NS(C)(=O)=O` [Example 5-1-107, N-[2-[5-amino-1-[4-(2,5-difluorophenoxy)-2-methylphenyl]pyrazole-4-carbonyl]-5-methyl-1H-indol-6-yl]methanesulfonamide], the IC50 on human Lck enzyme was found to be 7.9 nM; on human Src enzyme, 96 nM; on human Yes1 enzyme it was 1.5 nM.

For the molecule `Cc1cc2cc(C(=O)c3cnn(-c4cnc(Oc5ccccc5F)cc4C)c3N)[nH]c2cc1NS(=O)(=O)NC1CCOCC1` [Example 5-1-057, [5-amino-1-[6-(2-fluorophenoxy)-4-methylpyridin-3-yl]pyrazol-4-yl]-[5-methyl-6-(oxan-4-ylsulfamoylamino)-1H-indol-2-yl] methanone], the IC50 on human Lck enzyme was 31 nM; on human Src enzyme, 150 nM; on human Yes1 enzyme, 2 nM.

Take `Cc1cc(-n2ncc(C(=O)c3cc4cc(OC5CCN(C(C)C)CC5)c(N5C(=O)N[C@@H](C(C)C)C5=O)cc4[nH]3)c2N)ccc1Oc1ccccc1F` [Example 5-1-295, (5S)-3-[2-[5-amino-1-[4-(2-fluorophenoxy)-3-methylphenyl]pyrazole-4-carbonyl]-5-(1-propan-2-ylpiperidin-4-yl)oxy-1H-indol-6-yl]-5-propan-2-ylimidazolidine-2,4-dione]: the IC50 is 64 nM on human Lck enzyme, 700 nM on human Src enzyme and 1.5 nM on human Yes1 enzyme.

These data come from patent US10479780B2, “Aminopyrazole derivatives” (Chugai Seiyaku Kabushiki Kaisha, priority 2015, dated 2019).
